Experiments:
LXRβ = LXRβ (Homo sapiens (Human), UniProt P55055); test: In vitro assay LXRβ: PathHunter NHR CHO cells, LXRβ / Steroid Receptor Co-activator Peptide enzyme fragment complementation; format: cell-based; conditions: PathHunter NHR CHO cells, full-length human LXRβ and SRCP, chemiluminescent signal; read-out: LXRβ PPI
Summary of the method: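 Co-activator recruitment measured by chemiluminescence after signal generation. The CHO line carries full-length human LXRβ tagged with ProLink and an SRCP–enzyme acceptor fusion in the nucleus; cells sat overnight at 37° C before testing, in charcoal-dextran filtered serum medium with 1% final vehicle.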

SREBP-2 = SREBP-2 (Homo sapiens (Human), UniProt Q12772); test: In vitro assay SREBP-2: PathHunter U2OS SREBP-2 Nuclear Translocation Cell Line, U18666A-stimulated; format: cell-based; conditions: PathHunter U2OS SREBP-2 nuclear translocation cells, U18666A 10 μM, overnight (16 hours)

Sequence of LXRβ (P55055 whole entry, the tested form may be a part): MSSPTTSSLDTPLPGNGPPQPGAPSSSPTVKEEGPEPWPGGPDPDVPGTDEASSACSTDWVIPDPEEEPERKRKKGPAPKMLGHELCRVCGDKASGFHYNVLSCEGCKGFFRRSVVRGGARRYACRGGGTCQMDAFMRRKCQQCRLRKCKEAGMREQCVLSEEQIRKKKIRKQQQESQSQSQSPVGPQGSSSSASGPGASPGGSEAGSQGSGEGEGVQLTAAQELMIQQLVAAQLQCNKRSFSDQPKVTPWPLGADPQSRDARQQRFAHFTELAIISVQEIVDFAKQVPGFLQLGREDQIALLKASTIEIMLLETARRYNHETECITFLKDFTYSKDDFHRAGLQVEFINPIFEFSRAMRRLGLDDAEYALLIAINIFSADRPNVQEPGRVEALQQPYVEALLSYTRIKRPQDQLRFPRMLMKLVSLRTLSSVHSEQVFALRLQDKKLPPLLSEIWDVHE

C[C@H](CCC(=O)N1CCC(CNC(=O)C(C)(C)O)CC1)[C@H]1CC[C@H]2[C@@H]3CC=C4C[C@@H](O)CC[C@]4(C)[C@H]3CC[C@]12C [Example 228, 2-hydroxy-N-((1-((R)-4-((3S,8S,9S,10R,13R,14S,17R)-3-hydroxy-10,13-dimethyl-2,3,4,7,8,9,10,11,12,13,14,15,16,17-tetradecahydro-1H-cyclopenta[a]phenanthren-17-yl)pentanoyl)piperidin-4-yl)methyl)-2-methylpropanamide]
EC50 (LXRβ): > 10000 nM
IC50 (SREBP-2): < 250 nM

COc1cncnc1N1CCN(C(=O)CC[C@@H](C)[C@H]2CC[C@H]3[C@@H]4CC=C5C[C@@H](O)CC[C@]5(C)[C@H]4CC[C@]23C)[C@@H](C)C1 [Example 616, (R)-4-((3S,8S,9S,10R,13R,14S,17R)-3-hydroxy-10,13-dimethyl-2,3,4,7,8,9,10,11,12,13,14,15,16,17-tetradecahydro-1H-cyclopenta[a]phenanthren-17-yl)-1-((S)-4-(5-methoxypyrimidin-4-yl)-2-methylpiperazin-1-yl)pentan-1-one]
EC50 (LXRβ): > 10000 nM
IC50 (SREBP-2): < 250 nM

C[C@H](CCC(=O)N1CCN(C(=O)N(C)C)[C@@H](C)C1)[C@H]1CC[C@H]2[C@@H]3CC=C4C[C@@H](O)CC[C@]4(C)[C@H]3CC[C@]12C [Example 573, (2S)-4-[(4R)-4-[(1R,3aS,3bS,7S,9aR,9bS,11aR)-7-hydroxy-9a,11a-dimethyl-1H,2H,3H,3aH,3bH,4H,6H,7H,8H,9H,9aH,9bH,10H,11H,11aH-cyclopenta[a]phenanthren-1-yl]pentanoyl]-N,N,2-trimethylpiperazine-1-carboxamide]
EC50 (LXRβ): > 10000 nM
IC50 (SREBP-2): < 250 nM

C[C@H](CCc1cc(F)ccn1)[C@H]1CC[C@H]2[C@@H]3CC=C4C[C@@H](O)CC[C@]4(C)[C@H]3CC[C@]12C [Example 163, (3S,8S,9S,10R,13R,14S,17R)-17-((R)-4-(4-fluoropyridin-2-yl)butan-2-yl)-10,13-dimethyl-2,3,4,7,8,9,10,11,12,13,14,15,16,17-tetradecahydro-1H-cyclopenta[a]phenanthren-3-ol]
EC50 (LXRβ): 1000 to 10000 nM
IC50 (SREBP-2): < 250 nM

C[C@H](CCc1ncccc1C(F)(F)F)[C@H]1CC[C@H]2[C@@H]3CC=C4C[C@@H](O)CC[C@]4(C)[C@H]3CC[C@]12C [Example 185, (1R,3aS,3bS,7S,9aR,9bS,11aR)-9a,11a-dimethyl-1-[(2R)-4-[3-(trifluoromethyl)pyridin-2-yl]butan-2-yl]-1H,2H,3H,3aH,3bH,4H,6H,7H,8H,9H,9aH,9bH,10H,11H, 11 aH-cyclopenta[a]phenanthren-7-ol]
EC50 (LXRβ): 1000 to 10000 nM
IC50 (SREBP-2): 250 to 1000 nM

Cc1cnc(CC[C@@H](C)[C@H]2CC[C@H]3[C@@H]4CC=C5C[C@@H](O)CC[C@]5(C)[C@H]4CC[C@]23C)nc1 [Example 192, (3S,8S,9S,10R,13R,14S,17R)-10,13-dimethyl-17-((R)-4-(5-methylpyrimidin-2-yl)butan-2-yl)-2,3,4,7,8,9,10,11,12,13,14,15,16,17-tetradecahydro-1H-cyclopenta[a]phenanthren-3-ol]
EC50 (LXRβ): > 10000 nM
IC50 (SREBP-2): < 250 nM

C[C@H](CCC(=O)N1CCN(C(=O)N2CCCC2)C[C@@H]1C)[C@H]1CC[C@H]2[C@@H]3CC=C4C[C@@H](O)CC[C@]4(C)[C@H]3CC[C@]12C [Example 655, (R)-4-((3S,8S,9S,10R,13R,14S,17R)-3-hydroxy-10,13-dimethyl-2,3,4,7,8,9,10,11,12,13,14,15,16,17-tetradecahydro-1H-cyclopenta[a]phenanthren-17-yl)-1-((S)-2-methyl-4-(pyrrolidine-1-carbonyl)piperazin-1-yl)pentan-1-one]
EC50 (LXRβ): > 10000 nM
IC50 (SREBP-2): < 250 nM

C[C@H](CCC(=O)N1CCC[C@@H](O)C1)[C@H]1CC[C@H]2[C@@H]3CC=C4C[C@@H](O)CC[C@]4(C)[C@H]3CC[C@]12C [Example 104, (R)-4-((3S,8S,9S,10R,13R,14S,17R)-3-hydroxy-10,13-dimethyl-2,3,4,7,8,9,10,11,12,13,14,15,16,17-tetradecahydro-1H-cyclopenta[a]phenanthren-17-yl)-1-((R)-3-hydroxypiperidin-1-yl) pentan-1-one]
EC50 (LXRβ): 250 to 1000 nM
IC50 (SREBP-2): < 250 nM

C[C@H](CCC(=O)N(C)C1CCN(C(=O)N2CCCC2)CC1)[C@H]1CC[C@H]2[C@@H]3CC=C4C[C@@H](O)CC[C@]4(C)[C@H]3CC[C@]12C [Example 645, (4R)-4-[(1R,3aS,3bS,7S,9aR,9bS,11aR)-7-hydroxy-9a,11a-dimethyl-1H,2H,3H,3aH,3bH,4H,6H,7H,8H,9H,9aH,9bH,10H,11H,11aH-cyclopenta[a]phenanthren-1-yl]-N-methyl-N-[1-(pyrrolidine-1-carbonyl)piperidin-4-yl]pentanamide]
EC50 (LXRβ): > 10000 nM
IC50 (SREBP-2): < 250 nM

C[C@H](CCC(=O)N1CCN(c2ncncc2N)CC1)[C@H]1CC[C@H]2[C@@H]3CC=C4C[C@@H](O)CC[C@]4(C)[C@H]3CC[C@]12C [Example 632, (R)-1-(4-(5-aminopyrimidin-4-yl)piperazin-1-yl)-4-((3S,8S,9S,10R,13R,14S,17R)-3-hydroxy-10,13-dimethyl-2,3,4,7,8,9,10,11,12,13,14,15,16,17-tetradecahydro-1H-cyclopenta[a]phenanthren-17-yl)pentan-1-one]
EC50 (LXRβ): > 10000 nM
IC50 (SREBP-2): < 250 nM

C[C@H](CCC(=O)N1CCC2(CCOC2)CC1)[C@H]1CC[C@H]2[C@@H]3CC=C4C[C@@H](O)CC[C@]4(C)[C@H]3CC[C@]12C [Example 89, (R)-4-((3S,8S,9S,10R,13R,14S,17R)-3-hydroxy-10,13-dimethyl-2,3,4,7,8,9,10,11,12,13,14,15,16,17-tetradecahydro-1H-cyclopenta[a]phenanthren-17-yl)-1-(2-oxa-δ-azaspiro[4.5]decan-δ-yl)pentan-1-one]
EC50 (LXRβ): > 10000 nM
IC50 (SREBP-2): < 250 nM

C[C@H](CCC(=O)N(C)c1ccncc1)[C@H]1CC[C@H]2[C@@H]3CC=C4C[C@@H](O)CC[C@]4(C)[C@H]3CC[C@]12C [Example 639, (R)-4-((3S,8S,9S,10R,13R,14S,17R)-3-hydroxy-10,13-dimethyl-2,3,4,7,8,9,10,11,12,13,14,15,16,17-tetradecahydro-1H-cyclopenta[a]phenanthren-17-yl)-N-methyl-N-(pyridin-4-yl)pentanamide]
EC50 (LXRβ): > 10000 nM
IC50 (SREBP-2): 250 to 1000 nM

Cc1ccnc(N2CCN(C(=O)CC[C@@H](C)[C@H]3CC[C@H]4[C@@H]5CC=C6C[C@@H](O)CC[C@]6(C)[C@H]5CC[C@]34C)CC2)c1 [Example 658, (R)-4-((3S,8S,9S,10R,13R,14S,17R)-3-hydroxy-10,13-dimethyl-2,3,4,7,8,9,10,11,12,13,14,15,16,17-tetradecahydro-1H-cyclopenta[a]phenanthren-17-yl)-1-(4-(4-methylpyridin-2-yl)piperazin-1-yl)pentan-1-one]
EC50 (LXRβ): > 10000 nM
IC50 (SREBP-2): < 250 nM

CCC(=O)N1CCN(C(=O)CC[C@@H](C)[C@H]2CC[C@H]3[C@@H]4CC=C5C[C@@H](O)CC[C@]5(C)[C@H]4CC[C@]23C)CC1 [Example 385, (R)-4-((3S,8S,9S,10R,13R,14S,17R)-3-hydroxy-10,13-dimethyl-2,3,4,7,8,9,10,11,12,13,14,15,16,17-tetradecahydro-1H-cyclopenta[a]phenanthren-17-yl)-1-(4-propionylpiperazin-1-yl) pentan-1-one]
EC50 (LXRβ): > 10000 nM
IC50 (SREBP-2): < 250 nM

Source: patent US20230340011A1 (Asteroid Therapeutics, priority 2022, published 2023)
